# Assay results published in patent publication US10105357B2, “Indication of antibiotic drugs for preparation of cancer inhibition pharmaceutical composition” (LAUNX BIOMEDICAL CO., LTD., priority 2014, dated 2018).
# Counter-ions that a name gives are not always drawn. Like-named read-outs stand apart in the source and are kept apart here.
# Tests used:
# Format in all cases: cell-based, human
# [1] = tested on: HeLa (Cervix Adenocarcinoma); assay: Cell viability analysis, cervical cancer HeLa; conditions: for viability at 10 µM: Homo sapiens, HeLa
# [2] = tested on: HL-60 (Acute Promyelocytic Leukemia); assay: Cell viability analysis, leukemia HL-60; conditions: for viability at 10 µM: Homo sapiens
# [3] = tested on: PC3 (p53−) (Prostate Adenocarcinoma); assay: Cell viability analysis, prostate cancer PC3; conditions: for viability at 10 µM: Homo sapiens
# [4] = tested on: A375 (Amelanotic Melanoma); assay: Cell viability analysis, skin cancer A375; conditions: for viability at 10 µM: Homo sapiens
# [5] = tested on: MCF7 (Mammary Gland, Adenocarcinoma); assay: Cell viability analysis, breast cancer MCF7; conditions: for viability at 10 µM: Homo sapiens
# [6] = tested on: A549 (Lung Adenocarcinoma); assay: Cell viability analysis, lung cancer A549; conditions: for viability at 10 µM: Homo sapiens
# [7] = tested on: TSGH-8301 (Urinary Bladder Carcinoma); assay: Cell viability analysis, bladder cancer TSGH-8301; conditions: for viability at 10 µM: Homo sapiens
# [8] = tested on: AGS (Gastric Adenocarcinoma); assay: Cell viability analysis, gastric cancer AGS; conditions: for viability at 10 µM: Homo sapiens
# [9] = tested on: LoVo (Colorectal Adenocarcinoma); assay: Cell viability analysis, colon cancer LoVo; conditions: for viability at 10 µM: Homo sapiens, LoVo
# [10] = tested on: HepG2 (Hepatocellular Carcinoma); assay: Cell viability analysis, hepatic cancer HepG2; conditions: for viability at 10 µM: Homo sapiens
# [11] = tested on: MKN-45 (Gastric Adenocarcinoma); assay: Cell viability analysis, gastric cancer MKN-45; conditions: for viability at 10 µM: Homo sapiens
# [12] = tested on: HI650 (Lung Adenocarcinoma); assay: Cell viability analysis, lung cancer HI650; conditions: for viability at 10 µM: Homo sapiens
# [13] = 72 h, drug 10 μM, 72 hours, WST-1, OD450 nm, read-out: cell viability (survival rate), HeLa
# [14] = HL-60, 72 h, drug 10 μM, 72 hours, WST-1, OD450 nm, read-out: cell viability (survival rate), HL-60
# [15] = 72 h, drug 10 μM, 72 hours, WST-1, OD450 nm, read-out: cell viability (survival rate), PC3
# [16] = A-375, 72 h, drug 10 μM, 72 hours, WST-1, OD450 nm, read-out: cell viability (survival rate), A375
# [17] = MCF7, 72 h, drug 10 μM, 72 hours, WST-1, OD450 nm, read-out: cell viability (survival rate), MCF7
# [18] = A549, 72 h, drug 10 μM, 72 hours, WST-1, OD450 nm, read-out: cell viability (survival rate), A549
# [19] = 72 h, drug 10 μM, 72 hours, WST-1, OD450 nm, read-out: cell viability (survival rate), TSGH
# [20] = 72 h, drug 10 μM, 72 hours, WST-1, OD450 nm, read-out: cell viability (survival rate), AGS
# [21] = 72 h, read-out: cell viability (survival rate), LoVo, drug 10 μM, 72 hours, WST-1, OD450 nm
# [22] = HepG2, 72 h, drug 10 μM, 72 hours, WST-1, OD450 nm, read-out: cell viability (survival rate), HepG2
# [23] = MKN-45, 72 h, drug 10 μM, 72 hours, WST-1, OD450 nm, read-out: cell viability (survival rate), MKN-45
# [24] = NCI-H1650, 72 h, drug 10 μM, 72 hours, WST-1, OD450 nm, read-out: cell viability (survival rate), H1650
# [25] = drug 10 μM, 72 hours, WST-1, OD450 nm
structure (smiles),measurement,setting,value
Nc1nc(NC2CC2)c2ncn([C@H]3C=C[C@@H](CO)C3)c2n1 [Abacavir sulfate],viability at 10 µM,[1]; [13],84.2%
same,viability at 10 µM,[2]; [14],108%
same,viability at 10 µM,[3]; [15],76%
same,viability at 10 µM,[4]; [16],57.2%
same,viability at 10 µM,[5]; [17],79.6%
same,viability at 10 µM,[6]; [18],87%
same,viability at 10 µM,[7]; [19],148%
same,viability at 10 µM,[8]; [20],97.1%
same,viability at 10 µM,[9]; [21],100%
same,viability at 10 µM,[10]; [22],82.6%
same,viability at 10 µM,[11]; [23],94.6%
same,viability at 10 µM,[12]; [24],67%
CN(C/C=C/C#CC(C)(C)C)Cc1cccc2ccccc12.Cl [Terbinafine HCl (Lamisil)],"cell viability (survival rate), HeLa",[1]; [25],75.4
same,"cell viability (survival rate), HL-60",[2]; [25],86.5
same,"cell viability (survival rate), PC3",[3]; [25],70.8
same,"cell viability (survival rate), A375",[4]; [25],92.5
same,"cell viability (survival rate), MCF7",[5]; [25],67.7
same,"cell viability (survival rate), A549",[6]; [25],52.3
same,"cell viability (survival rate), TSGH",[7]; [25],50.6
same,"cell viability (survival rate), AGS",[8]; [25],90.6
same,"cell viability (survival rate), LoVo",[9]; [25],71.4
same,"cell viability (survival rate), HepG2",[10]; [25],91.1
same,"cell viability (survival rate), MKN-45",[11]; [25],81.8
same,"cell viability (survival rate), H1650",[12]; [25],40.6
"Nc1ccn([C@@H]2CS[C@H](CO)O2)c(=O)n1 [Lamivudine (Epivir), Lamivudine]",viability at 10 µM,"[1]; 72 h, read-out: cell viability (survival rate), HeLa, drug 10 μM, 72 hours, WST-1, OD450 nm",86.4%
same,viability at 10 µM,"[2]; HL-60, 72 h, read-out: cell viability (survival rate), HL-60, drug 10 μM, 72 hours, WST-1, OD450 nm",119%
same,viability at 10 µM,"[3]; 72 h, read-out: cell viability (survival rate), PC3, drug 10 μM, 72 hours, WST-1, OD450 nm",110%
same,viability at 10 µM,"[4]; A-375, 72 h, read-out: cell viability (survival rate), A375, drug 10 μM, 72 hours, WST-1, OD450 nm",95.8%
same,viability at 10 µM,"[5]; MCF7, 72 h, read-out: cell viability (survival rate), MCF7, drug 10 μM, 72 hours, WST-1, OD450 nm",83.2%
same,viability at 10 µM,"[6]; A549, 72 h, read-out: cell viability (survival rate), A549, drug 10 μM, 72 hours, WST-1, OD450 nm",75.2%
same,viability at 10 µM,"[7]; 72 h, read-out: cell viability (survival rate), TSGH, drug 10 μM, 72 hours, WST-1, OD450 nm",71.1%
same,viability at 10 µM,"[8]; 72 h, read-out: cell viability (survival rate), AGS, drug 10 μM, 72 hours, WST-1, OD450 nm",44.7%
same,viability at 10 µM,[9]; [21],71.3%
same,viability at 10 µM,"[10]; HepG2, 72 h, read-out: cell viability (survival rate), HepG2, drug 10 μM, 72 hours, WST-1, OD450 nm",108%
same,viability at 10 µM,"[11]; MKN-45, 72 h, read-out: cell viability (survival rate), MKN-45, drug 10 μM, 72 hours, WST-1, OD450 nm",47.7%
same,viability at 10 µM,"[12]; NCI-H1650, 72 h, read-out: cell viability (survival rate), H1650, drug 10 μM, 72 hours, WST-1, OD450 nm",54.1%
"CN(C)[C@@H]1C(O)=C(C(N)=O)C(=O)[C@@]2(O)C(O)=C3C(=O)c4c(O)cccc4[C@@](C)(O)[C@H]3[C@H](O)[C@@H]12 [Oxytetracycline (Terramycin), Oxytetracycline]","cell viability (survival rate), HeLa","[1]; human, 72 h, 10 µM",51.2
same,"cell viability (survival rate), HL-60","[2]; human, 72 h, 10 µM",97.9
same,"cell viability (survival rate), PC3","[3]; human, 72 h, 10 µM",70.8
same,"cell viability (survival rate), A375","[4]; human, 72 h, 10 µM",51.2
same,"cell viability (survival rate), MCF7","[5]; human, 72 h, 10 µM",38.9
same,"cell viability (survival rate), A549","[6]; human, 72 h, 10 µM",42.3
same,"cell viability (survival rate), TSGH","[7]; human, 72 h, 10 µM",73.8
same,"cell viability (survival rate), AGS","[8]; human, 72 h, 10 µM",61.9
same,"cell viability (survival rate), LoVo","[9]; human, 72 h, 10 µM",86.6
same,"cell viability (survival rate), HepG2","[10]; human, 72 h, 10 µM",88.4
same,"cell viability (survival rate), MKN-45","[11]; human, 72 h, 10 µM",56.7
same,"cell viability (survival rate), H1650","[12]; human, 72 h, 10 µM",70.1
CC(=O)[C@@]1(O)CC[C@H]2[C@@H]3CCC4=CC(=O)CCC4=C3[C@@H](c3ccc(N(C)C)cc3)C[C@@]21C [Ulipristal],viability at 10 µM,[1]; [13],72.4%
same,viability at 10 µM,[2]; [14],93.8%
same,viability at 10 µM,[3]; [15],49.3%
same,viability at 10 µM,[4]; [16],48.2%
same,viability at 10 µM,[5]; [17],65.4%
same,viability at 10 µM,[6]; [18],59.9%
same,viability at 10 µM,[7]; [19],55.8%
same,viability at 10 µM,[8]; [20],55.4%
same,viability at 10 µM,[9]; [21],67.8%
same,viability at 10 µM,[10]; [22],69%
same,viability at 10 µM,[11]; [23],36.1%
same,viability at 10 µM,[12]; [24],40.3%
CN(C)CCCN1c2ccccc2CCc2ccc(Cl)cc21.Cl [Clomipramine HCl (Anafranil)],"cell viability (survival rate), HeLa",[1]; [25],167.6
same,"cell viability (survival rate), HL-60",[2]; [25],82.7
same,"cell viability (survival rate), PC3",[3]; [25],75.8
same,"cell viability (survival rate), A375",[4]; [25],88.9
same,"cell viability (survival rate), MCF7",[5]; [25],75.7
same,"cell viability (survival rate), A549",[6]; [25],69.1
same,"cell viability (survival rate), TSGH",[7]; [25],46.2
same,"cell viability (survival rate), AGS",[8]; [25],60.2
same,"cell viability (survival rate), LoVo",[9]; [25],87.1
same,"cell viability (survival rate), HepG2",[10]; [25],115.6
same,"cell viability (survival rate), MKN-45",[11]; [25],70.5
same,"cell viability (survival rate), H1650",[12]; [25],47.5
CCOC(=O)CCC(=O)O[C@H]1[C@H](O[C@@H]2[C@@H](C)[C@H](O[C@H]3C[C@@](C)(OC)[C@@H](O)[C@H](C)O3)[C@@H](C)C(=O)O[C@H](CC)[C@@](C)(O)[C@H](O)[C@@H](C)C(=O)[C@H](C)C[C@@]2(C)O)O[C@H](C)C[C@@H]1N(C)C [Erythromycin Ethylsuccinate],viability at 10 µM,"[1]; drug 10 μM, 72 hours, WST-1, OD450 nm, read-out: cell viability (survival rate), HeLa",148%
same,viability at 10 µM,"[2]; HL-60, drug 10 μM, 72 hours, WST-1, OD450 nm, read-out: cell viability (survival rate), HL-60",83.6%
same,viability at 10 µM,"[3]; drug 10 μM, 72 hours, WST-1, OD450 nm, read-out: cell viability (survival rate), PC3",112%
same,viability at 10 µM,"[4]; A-375, drug 10 μM, 72 hours, WST-1, OD450 nm, read-out: cell viability (survival rate), A375",75%
same,viability at 10 µM,"[5]; MCF7, drug 10 μM, 72 hours, WST-1, OD450 nm, read-out: cell viability (survival rate), MCF7",88.2%
same,viability at 10 µM,"[6]; A549, drug 10 μM, 72 hours, WST-1, OD450 nm, read-out: cell viability (survival rate), A549",90%
same,viability at 10 µM,"[7]; drug 10 μM, 72 hours, WST-1, OD450 nm, read-out: cell viability (survival rate), TSGH",125%
same,viability at 10 µM,"[8]; drug 10 μM, 72 hours, WST-1, OD450 nm, read-out: cell viability (survival rate), AGS",111%
same,viability at 10 µM,"[9]; drug 10 μM, 72 hours, WST-1, OD450 nm, read-out: cell viability (survival rate), LoVo",80%
same,viability at 10 µM,"[10]; HepG2, drug 10 μM, 72 hours, WST-1, OD450 nm, read-out: cell viability (survival rate), HepG2",97.1%
same,viability at 10 µM,"[11]; MKN-45, drug 10 μM, 72 hours, WST-1, OD450 nm, read-out: cell viability (survival rate), MKN-45",129%
same,viability at 10 µM,"[12]; NCI-H1650, drug 10 μM, 72 hours, WST-1, OD450 nm, read-out: cell viability (survival rate), H1650",83.8%
